This is an account of results in patent US8592449B1, “Radiolabelled phenylimidazole-based ligands” (H. Lundbeck A/S, priority 2010, dated 2013).

For this data set, the system named is PDE10A. The following applies: monkey, PET. The procedure: The monkey is sedated with ketamin (approximately 10 mg/kg), weighed, and maintained on a constant infusion of ketamin 15 mg/kg/h during transport. During transport the monkey is monitored by pulse oximetry and supported by oxygen. One venous catheter is applied for tracer administration and one venous catheter for blood radioactivity and PK sampling. Propofol is administered until the animal is anesthetized enough to intubate. After intubation the animal is maintained on sevoflurane inhalation anesthesia and artificial ventilation.
Blood samples (0.2 mL for radioactivity determination are taken at 0.5, 1, 3, 5, 10, 15, 20, 30, 45, 60 and 90 minutes after injection. The samples are labeled with time, date, sampling time in relation to injection, and project number.
PET scanning and arterial blood sampling is commenced upon start of the administration of the radiolabelled compound.

Regarding `Cc1ccc(C)n2nc(CCc3nc(-c4ccccc4)cn3[11CH3])nc12` [[11C]Lu AE92686, 5,8-dimethyl-2-[2-([^11C-1-methyl]-4-phenyl-1H-imidazol-2-yl)-ethyl]-[1,2,4]triazolo[1,5-a]pyridine], the concentration in cerebellum result (cerebellum (very low level of PDE10A)) is “low”. Moreover, the “uptake and retention in striatum” value (striatum versus other brain regions) is “highest uptake and retention”. For the same compound, the brain entry result (i.v. bolus) was “readily enters the brain”. Moreover, the “time of peak regional tissue concentrations in brain” value (i.v. bolus, post injection) was 10 to 15 min.
